The source of these data is US20160130245A1, “6,8-SUBSTITUTED NARINGENIN DERIVATIVE AND USE THEREOF” (SUN YAT-SEN UNIVERSITY, priority 2012, published 2016).

Data set [1] relates to mice with cough induced from aqueous ammonia. The experiment in a line: Cough relieving effect of singly administered compounds in mice with cough induced from aqueous ammonia. It counts as in vivo, male KM mice. The note with it: example compounds 7.44 μmol/ml, codeine phosphate 0.47 μmol/ml; for Coughs: coughs counted in 3 min after 15 s atomized 25% aqueous ammonia, 1 hr after administration, intragastric gavage or intraperitoneal injection, 0.2 ml/10 g body weight, mean ± spread; for Cough relieving rate: relative to blank group (17.8 ± 5.4 coughs), same dosing as Coughs, 0.2 ml/10 g. The text has this:
II. Test on Cough Relieving Effect of Singly Administered Example Compounds of the Present Invention in Mice with Cough Induced from Aqueous Ammonia
1. Test animals: male KM mice (available from Guangdong Medical Laboratory Animal Center, Certificate No.: SCXK (Guangdong) 2008-0002, No. 0113738).
2. Test groups and treatment with drugs: Blank control group: treatment with 50% (v/v) PEG400 in physiological saline.
Treatment group with codeine phosphate as positive control—Codeine phosphate (Lott 20091212) is manufactured by Qinghai Pharmaceutical Co., Ltd. Before test, powdered codeine phosphate was added to 50% (v/v) PEG400 in physiological saline, to formulate a 0.47 μmol/ml solution.
Eligible male KM mice were randomly designated to a blank control group, and treatment groups with codeine phosphate as positive control and with example compounds, according to […].
The animals in each group were administered by intragastric gavage or intraperitoneal injection at a dosage of 0.2 ml/10 g of body weight, and placed in a cough inducing chamber 1 hr after administration. 1 ml of 25% concentrated aqueous ammonia was added to an atomizing cup and atomized for 15 s (at a rate of 0.15 ml/min). The coughs in 3 min were counted (during the typical cough, the mouth was opened and the head was lowered, which were accompanied by quivering of the neck and frequently a forward rushing).
Statistical analysis of data—Statistical analysis of all the data was conducted by SPSS 17.0 after the outliers were excluded by t test. Analysis of variance was performed by one-way ANOVA, multiple comparisons between the blank control group and each treatment group were carried out by Dunnett test, and the pairwise multiple comparisons between each treatment group and the codeine phosphate group were conducted by Duncan test.

Each structure is given as a SMILES string.

Usually melting point stands for the temperature of the solid-liquid transition.

As for `CCCc1c(O)c(Cl)c2c(c1O)C(=O)CC(c1ccc(O)cc1)O2` (centres unmarked) [Example 9, 8-Chloro-2,3-dihydro-5,7-dihydroxy-2-(4-hydroxyphenyl)-6-propylchromen-4-one], the melting point is 175 to 176 °C. In data set [1], this molecule registered a Coughs of 10.7 ± 4.2 and a Cough relieving rate of 39.82%.

In turn, `C=CCc1c(O)c(Br)c(O)c2c1OC(c1ccc(O)cc1)CC2=O` (centres unmarked) [Example 3, 8-allyl-6-bromo-2,3-dihydro-5,7-dihydroxy-2-(4-hydroxyphenyl)chromen-4-one] gave a melting point of 203 to 205 °C. In data set [1], this molecule gave a Coughs of 11.2 ± 6.2 and a Cough relieving rate of 37.28%.

In turn, `C=CCc1c(O)c(I)c2c(c1O)C(=O)CC(c1ccc(O)cc1)O2` (centres unmarked) [Example 10, 8-iodo-2,3-dihydro-5,7-dihydroxy-2-(4-hydroxyphenyl)-6-allylchromen-4-one] yielded a melting point of 218 to 220 °C. In data set [1], this molecule registered a Coughs of 12.2 ± 4.0 and a Cough relieving rate of 31.24%.

Regarding `C=CCc1c(O)c(O)c2c(c1O)C(=O)CC(c1ccc(O)cc1)O2` (centres unmarked) [Example 8, 6-allyl-2,3-dihydro-5,7,8-Trihydroxy-2-(4-hydroxyphenyl)chromen-4-one], the melting point fell in the range of 95 to 100 °C. In data set [1], this molecule displayed a Coughs of 10.2 ± 2.6 and a Cough relieving rate of 42.64%.

As to `O=C(O)Cc1c(O)c(Cl)c2c(c1O)C(=O)C[C@@H](c1ccc(O)cc1)O2` [Example 14, 8-chloro-naringenin-6-acetic acid], the melting point lay in the range of 185 to 186 °C. In data set [1], this molecule came in with a Coughs of 9.3 ± 3.9 and a Cough relieving rate of 47.59%.

`O=C(O)Cc1c(O)c(Cl)c(O)c2c1O[C@H](c1ccc(O)cc1)CC2=O` [Example 13, 6-chloro-naringenin-8-acetic acid] came in with a melting point of 185 to 186 °C. In addition, in data set [1], the Coughs was determined as 7.4 ± 3.4 and the Cough relieving rate amounted to 58.43%.

As for `CCCc1c(O)cc2c(c1O)C(=O)CC(c1ccc(O)cc1)O2` (centres unmarked) [Example 2, 6-n-propyl-2,3-dihydro-5,7-dihydroxy-2-(4-hydroxyphenyl)chromen-4-one], the melting point was 173 to 175 °C. In data set [1], this molecule registered a Coughs of 12.4 ± 4.6 and a Cough relieving rate of 30.16%.

As for `COc1ccc2c3c1O[C@H]1[C@@H](O)C=C[C@H]4[C@@H](C2)N(C)CC[C@@]341` [codeine phosphate, reference compound], in data set [1], the Coughs was found to be 10.8 ± 3.5 and the Cough relieving rate worked out at 39.60%.

Consider `O=CCc1c(O)cc(O)c2c1O[C@H](c1ccc(O)cc1)CC2=O` [Example 11, Naringenin-8-acetaldehyde], for which the melting point lay within 150 to 155 °C. In data set [1], this molecule gave a Coughs of 11.4 ± 6.5 and a Cough relieving rate of 35.78%.

Consider `C=CCc1c(O)c(Cl)c2c(c1O)C(=O)CC(c1ccc(O)cc1)O2` (centres unmarked) [Example 5, 6-allyl-8-chloro-2,3-dihydro-5,7-dihydroxy-2-(4-hydroxyphenyl)chromen-4-one], for which the melting point is 158 to 160 °C. Also, in data set [1], the Coughs is reported as 11.8 ± 7.3 and the Cough relieving rate was determined as 33.49%.

Turning to `O=CCc1c(O)cc2c(c1O)C(=O)C[C@@H](c1ccc(O)cc1)O2` [Example 12, Naringenin-6-acetaldehyde], the melting point lay within 178 to 180 °C. In data set [1], this molecule showed a Coughs of 9.3 ± 4.3 and a Cough relieving rate of 47.59%.

As for `CCCc1c(O)c(Cl)c(O)c2c1OC(c1ccc(O)cc1)CC2=O` (centres unmarked) [Example 6, 6-chloro-2,3-dihydro-5,7-dihydroxy-2-(4-hydroxyphenyl)-8-propylchromen-4-one], the melting point was in the range of 175 to 176 °C. In data set [1], this molecule showed a Coughs of 9.1 ± 3.9 and a Cough relieving rate of 49.06%.

Molecule `C=CCc1c(O)c(Cl)c(O)c2c1OC(c1ccc(O)cc1)CC2=O` (centres unmarked) [Example 7, 8-allyl-6-chloro-2,3-dihydro-5,7-dihydroxy-2-(4-hydroxyphenyl)chromen-4-one] gave a melting point of 215 to 216 °C. In data set [1], this molecule showed a Coughs of 10.5 ± 5.8 and a Cough relieving rate of 40.85%.

`O=C(O)Cc1c(O)cc(O)c2c1O[C@H](c1ccc(O)cc1)CC2=O` [Example 15, Naringenin-8-acetic acid] came in with a melting point of 245 to 247 °C. In data set [1], this molecule yielded a Coughs of 8.3 ± 5.8 and a Cough relieving rate of 53.31%.

The molecule `C=CCc1c(O)c(Br)c2c(c1O)C(=O)CC(c1ccc(O)cc1)O2` (centres unmarked) [Example 4, 6-allyl-8-bromo-2,3-dihydro-5,7-dihydroxy-2-(4-hydroxyphenyl)chromen-4-one] had a melting point of 158 to 160 °C. In data set [1], this molecule yielded a Coughs of 11.0 ± 4.1 and a Cough relieving rate of 38.03%.
